Measurements from US7211572B2 (Japan Tobacco Inc., priority 2003, dated 2007).
Where a name gives a salt, the structure may show the parent alone.

Target: T1, HIV integrase (Human immunodeficiency virus type 1 group M subtype B, UniProt P12497, F1332H)
T1 construct: HIV integrase full length gene; made in house; host or cells: Escherichia coli BL21(DE3), plasmid pET21a-INH
Assay: Determination of enzyme (HIV integrase) inhibitory activity
Format: biochemical
Settings: recombinant HIV integrase (F185H), strand transfer ELISA, absorbance at 450 nm
In short: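 Full-length integrase with F185H, expressed in E. coli and purified, was reacted for 60 min at 37 °C with compound and biotinylated donor DNA bound to streptavidin plates. Target DNA was added for 10 min, then anti-digoxigenin-peroxidase detection at A450; IC50 from % inhibition versus enzyme-free blank.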

**Q.** Which IC50 does the source give for `CCCCCN1CCn2cc(-c3nccs3)c(=O)c(O)c2C1=O` [Example 339, 9-hydroxy-2-pentyl-7-(thiazol-2-yl)-3,4-dihydro-2H-pyrido[1,2-a]pyrazine-1,8-dione hydrochloride] here?
**A.** The IC50 was 100 to 1000 nM.

**Q.** How did the IC50 turn out when `O=C1c2c(O)c(=O)c(-c3ccncc3)cn2CCN1Cc1cccc(Cl)c1F` [Example 340, 2-(3-chloro-2-fluorobenzyl)-9-hydroxy-7-(pyridin-4-yl)-3,4-dihydro-2H-pyrido[1,2-a]pyrazine-1,8-dione hydrochloride] was run?
**A.** Its IC50 is less than 10 nM.

**Q.** With `O=c1c(-c2ccncc2)cn2ccn(Cc3ccc(F)cc3)c(=O)c2c1O` [Example 341, 2-(4-fluorobenzyl)-9-hydroxy-7-(pyridin-4-yl)-2H-pyrido[1,2-a]pyrazine-1,8-dione hydrochloride] as the compound, how does the IC50 read?
**A.** The IC50 was less than 10 nM.

**Q.** `O=c1c(-c2ccncn2)cn2ccn(Cc3cccc(Cl)c3F)c(=O)c2c1O` [Example 342, 2-(3-chloro-2-fluorobenzyl)-9-hydroxy-7-(pyrimidin-4-yl)-2H-pyrido[1,2-a]pyrazine-1,8-dione trifluoroacetate] was tested. Which IC50 did it give?
**A.** The IC50 was less than 10 nM.

**Q.** For `Cn1ncnc1-c1cn2c(c(O)c1=O)C(=O)N(Cc1ccc(F)c(Cl)c1)CC2` [Example 343, 2-(3-chloro-4-fluorobenzyl)-9-hydroxy-7-(2-methyl-2H-1,2,4-triazol-3-yl)-3,4-dihydro-2H-pyrido[1,2-a]pyrazine-1,8-dione], which IC50 is on record?
**A.** Its IC50 is less than 10 nM.

**Q.** With `CC(=O)c1cn2ccn(Cc3ccc(F)cc3)c(=O)c2c(O)c1=O` [Example 344, 7-acetyl-2-(4-fluorobenzyl)-9-hydroxy-2H-pyrido [1,2-a]pyrazine-1,8-dione] as the compound, how does the IC50 read?
**A.** The IC50 was less than 10 nM.

**Q.** `CC(C)C(=O)c1cn2ccn(Cc3ccc(F)cc3)c(=O)c2c(O)c1=O` [Example 345, 2-(4-fluorobenzyl)-9-hydroxy-7-isobutyryl-2H-pyrido[1,2-a]pyrazine-1,8-dione hydrochloride] was tested. Which IC50 did it give?
**A.** Its IC50 is less than 10 nM.

**Q.** With `O=C(Nc1cn2c(c(O)c1=O)C(=O)N(Cc1cccc(Cl)c1)CC2)c1ccncc1` [Example 346, N-[2-(3-chlorobenzyl)-9-hydroxy-1,8-dioxo-1,3,4,8-tetrahydro-2H-pyrido[1,2-a]pyrazin-7-yl]isonicotinamide hydrochloride] as the compound, how does the IC50 read?
**A.** Its IC50 is 10 to 100 nM.

**Q.** How did the IC50 turn out when `O=c1c(-c2ccncn2)cn2ccn(Cc3ccc(F)cc3)c(=O)c2c1O` [Example 347, 2-(4-fluorobenzyl)-9-hydroxy-7-(pyrimidin-4-yl)-2H-pyrido[1,2-a]pyrazine-1,8-dione] was run?
**A.** Its IC50 is less than 10 nM.

**Q.** How did the IC50 turn out when `O=C1c2c(O)c(=O)c(-c3cnccn3)cn2CCN1Cc1ccc(F)c(Cl)c1` [Example 348, 2-(3-chloro-4-fluorobenzyl)-9-hydroxy-7-(pyrazin-2-yl)-3,4-dihydro-2H-pyrido[1,2-a]pyrazine-1,8-dione] was run?
**A.** Its IC50 is 10 to 100 nM.

**Q.** Which IC50 does the source give for `CC(C)C(=O)Nc1cn2c(c(O)c1=O)C(=O)N(Cc1ccc(F)c(Cl)c1)CC2` [Example 349, N-[2-(3-chloro-4-fluorobenzyl)-9-hydroxy-1,8-dioxo-1,3,4,8-tetrahydro-2H-pyrido[1,2-a]pyrazin-7-yl]isobutyramide] here?
**A.** The IC50 was 10 to 100 nM.

**Q.** How did the IC50 turn out when `O=C1c2c(O)c(=O)c(-c3nccs3)cn2CCN1Cc1ccc(Cl)cc1O` [Example 350, 2-(4-chloro-2-hydroxybenzyl)-9-hydroxy-7-(thiazol-2-yl)-3,4-dihydro-2H-pyrido[1,2-a]pyrazine-1,8-dione hydrochloride] was run?
**A.** Its IC50 is less than 10 nM.

**Q.** How did the IC50 turn out when `CC(CCN1CCn2cc(-c3nccs3)c(=O)c(O)c2C1=O)c1ccccc1` (stereo not shown) [Example 351, 9-hydroxy-2-(3-phenylbutyl)-7-(thiazol-2-yl)-3,4-dihydro-2H-pyrido[1,2-a]pyrazine-1,8-dione hydrochloride] was run?
**A.** Its IC50 is 10 to 100 nM.

**Q.** With `O=C(Nc1cn2c(c(O)c1=O)C(=O)N(Cc1cccc(Cl)c1F)CC2)c1cccnc1` [Example 352, N-[2-(3-chloro-2-fluorobenzyl)-9-hydroxy-1,8-dioxo-1,3,4,8-tetrahydro-2H-pyrido[1,2-a]pyrazin-7-yl)nicotinamide hydrochloride] as the compound, how does the IC50 read?
**A.** Its IC50 is 10 to 100 nM.

**Q.** `CS(=O)(=O)Nc1cn2c(c(O)c1=O)C(=O)N(Cc1ccc(F)c(Cl)c1)CC2` [Example 353, N-[2-(3-chloro-4-fluorobenzyl)-9-hydroxy-1,8-dioxo-1,3,4,8-tetrahydro-2H-pyrido[1,2-a]pyrazin-7-yl]methanesulfonamide] was tested. Which IC50 did it give?
**A.** The IC50 was less than 10 nM.

**Q.** With `CCCOc1ccc(CN2CCn3cc(-c4nccs4)c(=O)c(O)c3C2=O)cc1Cl` [Example 354, 2-(3-chloro-4-propoxybenzyl)-9-hydroxy-7-(thiazol-2-yl)-3,4-dihydro-2H-pyrido[1,2-a]pyrazine-1,8-dione hydrochloride] as the compound, how does the IC50 read?
**A.** Its IC50 is 10 to 100 nM.

**Q.** With `CC(C)Oc1ccc(CN2CCn3cc(-c4nccs4)c(=O)c(O)c3C2=O)cc1Cl` [Example 355, 2-(3-chloro-4-isopropoxybenzyl)-9-hydroxy-7-(thiazol-2-yl)-3,4-dihydro-2H-pyrido[1,2-a]pyrazine-1,8-dione hydrochloride] as the compound, how does the IC50 read?
**A.** Its IC50 is 10 to 100 nM.

**Q.** With `O=C1c2c(O)c(=O)c(-c3nccs3)cn2CCN1Cc1ccc(OCc2ccccc2)c(Cl)c1` [Example 356, 2-(4-benzyloxy-3-chlorobenzyl)-9-hydroxy-7-(thiazol-2-yl)-3,4-dihydro-2H-pyrido[1,2-a]pyrazine-1,8-dione hydrochloride] as the compound, how does the IC50 read?
**A.** The IC50 was 10 to 100 nM.

**Q.** How did the IC50 turn out when `CCCOc1cc(Cl)ccc1CN1CCn2cc(-c3nccs3)c(=O)c(O)c2C1=O` [Example 357, 2-(4-chloro-2-propoxybenzyl)-9-hydroxy-7-(thiazol-2-yl)-3,4-dihydro-2H-pyrido[1,2-a]pyrazine-1,8-dione hydrochloride] was run?
**A.** Its IC50 is 10 to 100 nM.

**Q.** For `CC(C)Oc1cc(Cl)ccc1CN1CCn2cc(-c3nccs3)c(=O)c(O)c2C1=O` [Example 358, 2-(4-chloro-2-isopropoxybenzyl)-9-hydroxy-7-(thiazol-2-yl)-3,4-dihydro-2H-pyrido[1,2-a]pyrazine-1,8-dione hydrochloride], which IC50 is on record?
**A.** The IC50 was 10 to 100 nM.

**Q.** How did the IC50 turn out when `O=C1c2c(O)c(=O)c(-c3nccs3)cn2CCN1Cc1ccc(Cl)cc1OCc1ccccc1` [Example 359, 2-(2-benzyloxy-4-chlorobenzyl)-9-hydroxy-7-(thiazol-2-yl)-3,4-dihydro-2H-pyrido[1,2-a]pyrazine-1,8-dione hydrochloride] was run?
**A.** The IC50 was 10 to 100 nM.

**Q.** With `Cn1ncnc1-c1cn2ccn(Cc3ccc(F)cc3)c(=O)c2c(O)c1=O` [Example 360, 2-(4-fluorobenzyl)-9-hydroxy-7-(2-methyl-2H-1,2,4-triazol-3-yl)-2H-pyrido[1,2-a]pyrazine-1,8-dione hydrochloride] as the compound, how does the IC50 read?
**A.** The IC50 was less than 10 nM.

**Q.** `CNC(=O)c1cn2c(c(O)c1=O)C(=O)N(Cc1cccc(Cl)c1F)CC2` [Example 361, N-methyl-2-(3-chloro-2-fluorobenzyl)-9-hydroxy-1,8-dioxo-1,3,4,8-tetrahydro-2H-pyrido[1,2-a]pyrazine-7-carboxamide] was tested. Which IC50 did it give?
**A.** Its IC50 is 10 to 100 nM.

**Q.** How did the IC50 turn out when `CCC(C)(C)C(=O)c1cn2c(c(O)c1=O)C(=O)N(Cc1cccc(Cl)c1)CC2` [Example 362, 2-(3-chlorobenzyl)-7-(2,2-dimethylbutyryl)-9-hydroxy-3,4-dihydro-2H-pyrido[1,2-a]pyrazine-1,8-dione] was run?
**A.** The IC50 was 10 to 100 nM.

**Q.** How did the IC50 turn out when `O=C1c2c(O)c(=O)c(-c3ccccn3)cn2CCN1Cc1ccc(F)cc1` [Example 363, 2-(4-fluorobenzyl)-9-hydroxy-7-(pyridin-2-yl)-3,4-dihydro-2H-pyrido[1,2-a]pyrazine-1,8-dione hydrochloride] was run?
**A.** The IC50 was 10 to 100 nM.

**Q.** For `O=c1c(-c2ccccn2)cn2ccn(Cc3cccc(Cl)c3F)c(=O)c2c1O` [Example 364, 2-(3-chloro-2-fluorobenzyl)-9-hydroxy-7-(pyridin-2-yl)-2H-pyrido[1,2-a]pyrazine-1,8-dione hydrochloride], which IC50 is on record?
**A.** The IC50 was less than 10 nM.

**Q.** How did the IC50 turn out when `O=c1c(-c2ccccn2)cn2ccn(Cc3cccc(F)c3)c(=O)c2c1O` [Example 365, 2-(3-fluorobenzyl)-9-hydroxy-7-(pyridin-2-yl)-2H-pyrido[1,2-a]pyrazine-1,8-dione hydrochloride] was run?
**A.** Its IC50 is 10 to 100 nM.

**Q.** Which IC50 does the source give for `CC(=O)Nc1cc(F)ccc1CN1CCn2cc(-c3nccs3)c(=O)c(O)c2C1=O` [Example 366, N-{5-fluoro-2-[9-hydroxy-1,8-dioxo-7-(thiazol-2-yl)-1,3,4,8-tetrahydro-pyrido[1,2-a]pyrazin-2-ylmethyl]phenyl}acetamide hydrochloride] here?
**A.** The IC50 was 100 to 1000 nM.

**Q.** `CC(C)(C)C(=O)c1cn2c(c(O)c1=O)C(=O)N(Cc1cccc(Cl)c1F)CC2` [Example 367, 2-(3-chloro-2-fluorobenzyl)-7-(2,2-dimethylpropionyl)-9-hydroxy-3,4-dihydro-2H-pyrido[1,2-a]pyrazine-1,8-dione hydrochloride] was tested. Which IC50 did it give?
**A.** The IC50 was 10 to 100 nM.

**Q.** For `O=C(O)c1cc(F)ccc1CN1CCn2cc(-c3nccs3)c(=O)c(O)c2C1=O` [Example 368, 5-fluoro-2-[9-hydroxy-1,8-dioxo-7-(thiazol-2-yl)-1,3,4,8-tetrahydro-pyrido[1,2-a]pyrazin-2-ylmethyl]benzoic acid hydrochloride], which IC50 is on record?
**A.** The IC50 was 10 to 100 nM.

**Q.** Which IC50 does the source give for `O=c1c(-c2ccccn2)cn2ccn(Cc3ccc(F)c(F)c3)c(=O)c2c1O` [Example 369, 2-(3,4-difluorobenzyl)-9-hydroxy-7-(pyridin-2-yl)-2H-pyrido[1,2-a]pyrazine-1,8-dione hydrochloride] here?
**A.** Its IC50 is less than 10 nM.

**Q.** For `CN(Cc1ccccc1)C(=O)c1cn2c(c(O)c1=O)C(=O)N(Cc1cccc(Cl)c1)CC2` [Example 370, N-benzyl-N-methyl-2-(3-chlorobenzyl)-9-hydroxy-1,8-dioxo-1,3,4,8-tetrahydro-2H-pyrido[1,2-a]pyrazine-7-carboxamide hydrochloride], which IC50 is on record?
**A.** The IC50 was less than 10 nM.

**Q.** Which IC50 does the source give for `O=C(NCc1cccnc1)c1cn2c(c(O)c1=O)C(=O)N(Cc1cccc(Cl)c1)CC2` [Example 371, N-(pyridin-3-ylmethyl)-2-(3-chlorobenzyl)-9-hydroxy-1,8-dioxo-1,3,4,8-tetrahydro-2H-pyrido[1,2-a]pyrazine-7-carboxamide hydrochloride] here?
**A.** The IC50 was 10 to 100 nM.

**Q.** With `O=C(NCc1ccccn1)c1cn2c(c(O)c1=O)C(=O)N(Cc1cccc(Cl)c1)CC2` [Example 372, N-(pyridin-2-ylmethyl)-2-(3-chlorobenzyl)-9-hydroxy-1,8-dioxo-1,3,4,8-tetrahydro-2H-pyrido[1,2-a]pyrazine-7-carboxamide hydrochloride] as the compound, how does the IC50 read?
**A.** The IC50 was 10 to 100 nM.
